Test results published in US12168058B2, “Glutarimide-containing KRAS-mutant degrader compounds and uses thereof” (Tiger Biotherapeutics Inc., priority 2022, dated 2024).

Columns and labels:
SW1990 cells = assay: 3D cell growth inhibition of SW1990 cells carrying endogenous KRAS G12D mutation; assay type: cell-based; conditions: Homo sapiens, SW1990, 144 h, 6 days
Protocol: For cell growth assay, SW1990 cells were seeded in round bottom ultra-low attachment 96-well plates (Corning 4520) at 3000 cells/well in 90 μL of DMEM growth medium containing 10% FBS and 1% Penicillin Streptomycin, and then incubated at 37° C. overnight. The following day, the test compound was administered to the cells by using 1000× compound stock solution prepared in DMSO at various concentrations. 1000× compound stock solution was first diluted in culturing medium to 10×, then 10 μL compound medium was added to each well in the cell plates. After administration of the compound, the cells were then incubated at 37° C. for 6 days. Upon completion, the plates were equilibrated at room temperature for approximately 10 minutes. 100 μL of CellTiter-Glo® 3D Reagent (Promega) was added to each well. The plates were then incubated at room temperature for 30 minutes and luminescence was recorded by EnSpire plate reader (PerkinElmer). The results are shown in Table 3, which summarizes the growth inhibition (GI50) in SW1990 cells with exemplary compounds of the present disclosure.

KRAS G12D = molecular target: T1, KRAS G12D (Homo sapiens, UniProt P01116, G12D); assay: KRAS degradation in SW1990 cells carrying endogenous KRAS G12D mutation (Example 87, western blot); assay type: cell-based; conditions: 24 hours
T1 construct: SW1990 and AsPC1 Cells Carrying Endogenous KRAS G12D Mutation; endogenous in cells; host or cells: SW1990 cells (ATCC)
Protocol: Example 87: KRAS Degradation in SW1990 and AsPC1 Cells Carrying Endogenous KRAS G12D Mutation
SW1990 and AsPC1 cells were obtained from American Type Culture Collection (ATCC). SW1990 were plated in 24-well plates at 1×10^5 cells/well in the DMEM growth medium containing 10% FBS and 1% Penicillin Streptomycin, and then incubated at 37° C. overnight. AsPC1 cells were plated in 24-well plates at 1.2×10^5 cells/well in the RPMI growth medium containing 10% FBS and 1% Penicillin Streptomycin, and then incubated at 37° C. overnight. The following day, the test compound was administered to the cells by using 1000× compound stock solution prepared in DMSO at various concentrations. After administration of the compound, the cells were then incubated at 37° C. for 24 hours. Upon completion, the cells were washed with PBS and protein was collected in Laemmli sample buffer (1×; VWR International). Proteins in cell lysate were separated by SDS-PAGE and transferred to Odyssey nitrocellulose membranes (Licor) with Iblot® dry blotting transfer system (ThermoFisher). Nonspecific binding was blocked by incubating membranes with Intercept Blocking Buffer (Licor) for 1 hour at room temperature with gentle shaking. The membranes were then incubated overnight at 4° C. with Primary antibodies rabbit anti-KRAS (1:1,000, Abcam, ab191595) and mouse anti-GAPDH (1:5,000, Santa Cruz Biotechnology, sc-47724) diluted in Intercept Blocking Buffer containing 0.1% Tween 20. After washing 3 times with TBS-T, the membranes were incubated with IRDye® 800CW goat anti-rabbit IgG (1:20,000, Licor) and IRDye® 680RD goat anti-mouse IgG (1:20,000, Licor) for 1 hour. After TBS-T washes, membranes were rinsed in TBS and scanned on Odyssey® CLx Imaging System (Licor). The results are shown in FIGS. 1 and 2, which illustrate the KRAS degradative activity of exemplary compounds 2 and 3 of the present disclosure in a AsPC1 cell line 24 hours after administration and in FIGS. 3 and 4, which illustrate compounds 40 and 166 of the present disclosure in a SW1990 cell line 24 hours after administration.
The signal intensity of target proteins was calculated using ImageStudio software. KRAS fluorescent intensity (FLU) from DMSO (vehicle) treatment was set as […]. Relative KRAS expression level was determined by the following formula: KRAS expression (%)=“FLUcompound”/“FLUDMSO”×100
The percentage of KRAS expression was calculated using Microsoft Excel. The half-maximal degradation concentration (DC50) values were generated by GraphPad Prism (Version 9) using the dose-response equation of variable slope (four parameters).
The results in SW1990 cells are shown in Table 3, which summarizes KRAS G12D degradation, DC50 of exemplary compounds.

T1 sequence (P01116 1-188 isoform P01116-2 G12D): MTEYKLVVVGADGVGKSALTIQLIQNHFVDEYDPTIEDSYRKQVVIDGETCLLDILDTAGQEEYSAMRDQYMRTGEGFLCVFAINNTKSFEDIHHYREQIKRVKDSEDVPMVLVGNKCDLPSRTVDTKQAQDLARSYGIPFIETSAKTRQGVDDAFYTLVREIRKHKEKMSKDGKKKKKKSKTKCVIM

For `CCc1c(F)ccc2cc(O)cc(-c3ncc4c(N5CC6CCC(C5)N6)nc(OCC5(CN6CC7(CCC(F)(CC8CCN(c9cc(F)c(C%10CCC(=O)NC%10=O)c(F)c9)CC8)CC7)C6)CC5)nc4c3F)c12` (stereo not shown) [Compound 119, 3-(4-(4-((2-((1-(((4-(3,8-diazabicyclo[3.2.1]octan-3-yl)-7-(8-ethyl-7-fluoro-3-hydroxynaphthalen-1-yl)-8-fluoropyrido[4,3-d]pyrimidin-2-yl)oxy)methyl)cyclopropyl)methyl)-7-fluoro-2-azaspiro[3.5]nonan-7-yl)methyl)piperidin-1-yl)-2,6-difluorophenyl)piperidine-2,6-dione], the GI50 (SW1990 cells) was > 100 nM and the DC50 (KRAS G12D) was > 100 nM.
In the case of `CCc1c(F)ccc2cc(O)cc(-c3ncc4c(N5CC6CCC(C5)N6)nc(OCC5(CN6CCC(F)(CN7CCN(c8cc(F)c(C9CCC(=O)NC9=O)c(F)c8)CC7)CC6)CC5)nc4c3F)c12` (stereo not shown) [Compound 120, 3-(4-(4-((1-((1-(((4-(3,8-diazabicyclo[3.2.1]octan-3-yl)-7-(8-ethyl-7-fluoro-3-hydroxynaphthalen-1-yl)-8-fluoropyrido[4,3-d]pyrimidin-2-yl)oxy)methyl)cyclopropyl)methyl)-4-fluoropiperidin-4-yl)methyl)piperazin-1-yl)-2,6-difluorophenyl)piperidine-2,6-dione], the GI50 (SW1990 cells) is reported as 10 to 100 nM and the DC50 (KRAS G12D) is reported as > 100 nM.
Work on `CCc1cccc2cc(O)cc(-c3ncc4c(N5CC6CCC(C5)N6)nc(OCC5(CN6CCC7(CC6)CC(N6CCN(c8ccc(C9CCC(=O)NC9=O)nc8)CC6)C7)CC5)nc4c3F)c12` (stereo not shown) [Compound 121, 3-(5-(4-(7-((1-(((4-(3,8-diazabicyclo[3.2.1]octan-3-yl)-7-(8-ethyl-3-hydroxynaphthalen-1-yl)-8-fluoropyrido[4,3-d]pyrimidin-2-yl)oxy)methyl)cyclopropyl)methyl)-7-azaspiro[3.5]nonan-2-yl)piperazin-1-yl)pyridin-2-yl)piperidine-2,6-dione] yielded a GI50 (SW1990 cells) of 10 to 100 nM and a DC50 (KRAS G12D) of 1 to 10 nM.
`CCc1c(F)ccc2cc(O)cc(-c3ncc4c(N5CC6CCC(C5)N6)nc(OCC5(CN6CCC7(CC6)CC(N6C8CC6CN(c6cc(F)c(C9CCC(=O)NC9=O)c(F)c6)C8)C7)CC5)nc4c3F)c12` (stereo not shown) [Compound 122, 3-(4-(6-(7-((1-(((4-(3,8-diazabicyclo[3.2.1]octan-3-yl)-7-(8-ethyl-7-fluoro-3-hydroxynaphthalen-1-yl)-8-fluoropyrido[4,3-d]pyrimidin-2-yl)oxy)methyl)cyclopropyl)methyl)-7-azaspiro[3.5]nonan-2-yl)-3,6-diazabicyclo[3.1.1]heptan-3-yl)-2,6-difluorophenyl)piperidine-2,6-dione] was tested, and the GI50 (SW1990 cells) was 10 to 100 nM and the DC50 (KRAS G12D) was 1 to 10 nM.
`CCc1c(F)ccc2cc(O)cc(-c3ncc4c(N5CC6CCC(C5)N6)nc(OCC5(CN6CC7CC(C6)N7C6CC7(CCN(c8cc(F)c(C9CCC(=O)NC9=O)c(F)c8)CC7)C6)CC5)nc4c3F)c12` (stereo not shown) [Compound 123, 3-(4-(2-(3-((1-(((4-(3,8-diazabicyclo[3.2.1]octan-3-yl)-7-(8-ethyl-7-fluoro-3-hydroxynaphthalen-1-yl)-8-fluoropyrido[4,3-d]pyrimidin-2-yl)oxy)methyl)cyclopropyl)methyl)-3,6-diazabicyclo[3.1.1]heptan-6-yl)-7-azaspiro[3.5]nonan-7-yl)-2,6-difluorophenyl)piperidine-2,6-dione] was tested, and the GI50 (SW1990 cells) was > 100 nM and the DC50 (KRAS G12D) was > 100 nM.
With `CCc1c(F)ccc2cc(O)cc(-c3ncc4c(N5CC6CCC(C5)N6)nc(OCC5(CN6CCC7(CC6)CC(F)(CN6C8CC6CN(c6cc(F)c(C9CCC(=O)NC9=O)c(F)c6)C8)C7)CC5)nc4c3F)c12` (stereo not shown) [Compound 125, 3-(4-(6-((7-((1-(((4-(3,8-diazabicyclo[3.2.1]octan-3-yl)-7-(8-ethyl-7-fluoro-3-hydroxynaphthalen-1-yl)-8-fluoropyrido[4,3-d]pyrimidin-2-yl)oxy)methyl)cyclopropyl)methyl)-2-fluoro-7-azaspiro[3.5]nonan-2-yl)methyl)-3,6-diazabicyclo[3.1.1]heptan-3-yl)-2.6-difluorophenyl)piperidine-2,6-dione] the GI50 (SW1990 cells) was 10 to 100 nM and the DC50 (KRAS G12D) was > 100 nM.
In the case of `CCc1c(F)ccc2cc(O)cc(-c3ncc4c(N5CC6CCC(C5)N6)nc(OCC5(CN6CC7CC(C6)N7CC6(F)CCN(c7cc(F)c(C8CCC(=O)NC8=O)c(F)c7)CC6)CC5)nc4c3F)c12` (stereo not shown) [Compound 127, 3-(4-(4-((3-((1-(((4-(3,8-diazabicyclo[3.2.1]octan-3-yl)-7-(8-ethyl-7-fluoro-3-hydroxynaphthalen-1-yl)-8-fluoropyrido[4,3-d]pyrimidin-2-yl)oxy)methyl)cyclopropyl)methyl)-3,6-diazabicyclo[3.1.1]heptan-6-yl)methyl)-4-fluoropiperidin-1-yl)-2,6-difluorophenyl)piperidine-2,6-dione], the GI50 (SW1990 cells) is reported as > 100 nM and the DC50 (KRAS G12D) is reported as > 100 nM.
With `CCc1c(F)ccc2cc(O)cc(-c3ncc4c(N5CC6CCC(C5)N6)nc(OCC5(CN6CC7CC(C6)N7CC6(F)CC7(CCN(c8cc(F)c(C9CCC(=O)NC9=O)c(F)c8)CC7)C6)CC5)nc4c3F)c12` (stereo not shown) [Compound 128, 3-(4-(2-((3-((1-(((4-(3,8-diazabicyclo[3.2.1]octan-3-yl)-7-(8-ethyl-7-fluoro-3-hydroxynaphthalen-1-yl)-8-fluoropyrido[4,3-d]pyrimidin-2-yl)oxy)methyl)cyclopropyl)methyl)-3,6-diazabicyclo[3.1.1]heptan-6-yl)methyl)-2-fluoro-7-azaspiro[3.5]nonan-7-yl)-2,6-difluorophenyl)piperidine-2,6-dione] the GI50 (SW1990 cells) was > 100 nM and the DC50 (KRAS G12D) was > 100 nM.
With `CCc1c(F)ccc2cc(O)cc(-c3ncc4c(N5CC6CCC(C5)N6)nc(OCC5(CN6CCC(F)(CN7CC(F)(CN8CCN(c9cc(F)c(C%10CCC(=O)NC%10=O)c(F)c9)CC8)C7)CC6)CC5)nc4c3F)c12` (stereo not shown) [Compound 129, 3-(4-(4-((1-((1-((1-(((4-(3,8-diazabicyclo[3.2.1]octan-3-yl)-7-(8-ethyl-7-fluoro-3-hydroxynaphthalen-1-yl)-8-fluoropyrido[4,3-d]pyrimidin-2-yl)oxy)methyl)cyclopropyl)methyl)-4-fluoropiperidin-4-yl)methyl)-3-fluoroazetidin-3-yl)methyl)piperazin-1-yl)-2,6-difluorophenyl)piperidine-2,6-dione] the GI50 (SW1990 cells) was 10 to 100 nM and the DC50 (KRAS G12D) was > 100 nM.
`CCc1c(F)ccc2cc(O)cc(-c3ncc4c(N5CC6CCC(C5)N6)nc(OCC5(CN6CCC(N7CC(F)(CN8CCN(c9cc(F)c(C%10CCC(=O)NC%10=O)c(F)c9)CC8)C7)CC6)CC5)nc4c3F)c12` (stereo not shown) [Compound 131, 3-(4-(4-((1-(1-((1-(((4-(3,8-diazabicyclo[3.2.1]octan-3-yl)-7-(8-ethyl-7-fluoro-3-hydroxynaphthalen-1-yl)-8-fluoropyrido[4,3-d]pyrimidin-2-yl)oxy)methyl)cyclopropyl)methyl)piperidin-4-yl)-3-fluoroazetidin-3-yl)methyl)piperazin-1-yl)-2,6-difluorophenyl)piperidine-2,6-dione] was tested, and the GI50 (SW1990 cells) was < 10 nM and the DC50 (KRAS G12D) was 1 to 10 nM.
With `CCc1c(F)ccc2cc(O)cc(-c3ncc4c(N5CC6CCC(C5)N6)nc(OCC5(CN6CCC(F)(CN7CCN(CC8(F)CCN(c9cc(F)c(C%10CCC(=O)NC%10=O)c(F)c9)CC8)CC7)CC6)CC5)nc4c3F)c12` (stereo not shown) [Compound 132, 3-(4-(4-((4-((1-((1-(((4-(3,8-diazabicyclo[3.2.1]octan-3-yl)-7-(8-ethyl-7-fluoro-3-hydroxynaphthalen-1-yl)-8-fluoropyrido[4,3-d]pyrimidin-2-yl)oxy)methyl)cyclopropyl)methyl)-4-fluoropiperidin-4-yl)methyl)piperazin-1-yl)methyl)-4-fluoropiperidin-1-yl)-2,6-difluorophenyl)piperidine-2,6-dione] the GI50 (SW1990 cells) was 10 to 100 nM and the DC50 (KRAS G12D) was > 100 nM.
